# Where two headings read alike, the source gives them in different places. Marks after values point to notes of the source that are not given here.
# Tests used:
# [1] = molecular target: T1, Dopamine beta hydroxylase (Homo sapiens, UniProt P09172); experiment: Dopamine beta hydroxylase activity in human plasma; assay type: biochemical; conditions: for Plasma (1 μM), activity in % of control: inhibitor 1 μM
# T1 construct: 125 μl of plasma; tissue Instituto Português do Sangue Transplantação; host or cells: human plasma from healthy donors
# T1 sequence (P09172 40-617 limits assumed): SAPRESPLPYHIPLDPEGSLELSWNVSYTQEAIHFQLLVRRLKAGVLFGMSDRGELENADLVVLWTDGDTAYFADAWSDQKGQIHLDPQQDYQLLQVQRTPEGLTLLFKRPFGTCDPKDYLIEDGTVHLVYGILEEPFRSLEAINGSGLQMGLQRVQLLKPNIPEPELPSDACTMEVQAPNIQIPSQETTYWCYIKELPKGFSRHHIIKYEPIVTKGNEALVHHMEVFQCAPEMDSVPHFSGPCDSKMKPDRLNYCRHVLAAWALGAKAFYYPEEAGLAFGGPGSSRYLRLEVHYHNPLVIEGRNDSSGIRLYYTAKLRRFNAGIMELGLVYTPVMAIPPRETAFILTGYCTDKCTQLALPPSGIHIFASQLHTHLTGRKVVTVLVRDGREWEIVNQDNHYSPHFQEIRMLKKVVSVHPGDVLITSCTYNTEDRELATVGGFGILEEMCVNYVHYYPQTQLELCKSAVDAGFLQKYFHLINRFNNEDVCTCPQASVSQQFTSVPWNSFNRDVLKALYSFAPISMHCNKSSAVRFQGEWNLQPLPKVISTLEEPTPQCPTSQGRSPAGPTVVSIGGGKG
# Summary of the method: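 Healthy-donor human plasma pre-incubated 10 min at 37° C with compound at final 10, 100 or 1000 nM in pH 5.0 acetate buffer with ascorbate, fumarate, pargyline, N-ethylmaleimide, catalase and copper sulfate. Tyramine substrate then added for 45 min; octopamine formed was isolated by SCX cartridge, periodate-converted and read at 330 nm; activity given as % control.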
# [2] = molecular target: T2, DβH (Homo sapiens, UniProt P09172); experiment: DβH inhibition assay in SK-N-SH cellular homogenates (tyramine to octopamine); assay type: biochemical; conditions: SK-N-SH cell homogenate; for SKNSH (0.1 μM), activity in % of control: inhibitor 0.1 μM; for SKNSH (1 μM), activity in % of control: inhibitor 1 μM
# T2 construct: cellular homogenate (75 μg total protein); host or cells: SK-N-SH cells (homogenate)
# T2 sequence (P09172 1-617): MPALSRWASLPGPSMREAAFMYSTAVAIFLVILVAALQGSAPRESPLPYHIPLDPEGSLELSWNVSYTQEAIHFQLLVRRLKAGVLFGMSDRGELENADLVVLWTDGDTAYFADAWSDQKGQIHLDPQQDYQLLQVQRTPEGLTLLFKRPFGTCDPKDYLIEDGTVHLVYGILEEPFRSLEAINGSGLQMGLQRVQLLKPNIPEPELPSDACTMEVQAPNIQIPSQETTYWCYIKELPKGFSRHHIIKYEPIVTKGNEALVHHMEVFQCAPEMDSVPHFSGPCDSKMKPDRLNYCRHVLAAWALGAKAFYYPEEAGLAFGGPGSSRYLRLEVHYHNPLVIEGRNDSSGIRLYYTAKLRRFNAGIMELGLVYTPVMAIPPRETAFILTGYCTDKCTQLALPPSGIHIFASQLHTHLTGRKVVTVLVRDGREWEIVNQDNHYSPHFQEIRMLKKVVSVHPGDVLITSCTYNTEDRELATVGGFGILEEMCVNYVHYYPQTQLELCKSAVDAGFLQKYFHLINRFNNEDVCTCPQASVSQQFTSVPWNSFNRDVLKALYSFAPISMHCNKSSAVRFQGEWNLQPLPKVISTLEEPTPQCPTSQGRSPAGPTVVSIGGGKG
# [3] = Evaluation of pharmacokinetic profile: plasma and brain concentrations after oral dosing; assay type: in vivo, Wistar rats; conditions: rat, 10 mg/kg po; for concentration at 1 h / concentration at 2 h: male, Wistar; for concentration at 1 h: 1 h post-dosing; for concentration at 2 h: 2 h post-dosing
# Protocol: Adult male Wistar rats were kept under controlled environmental conditions (12 h light/dark cycle, room temperature 22±1° C. and humidity 50±5%, food and tap water ad libitum). On the day before the experiment, the animals were fasted. In experiments designed to evaluate the pharmacokinetic profile of Examples 56, 66, 199 and 232, rats (n=4) were administered orally (p.o.) with examples 56, 66, 199 and 232 (10 mg/kg/4 mL; vehicle: 40% kleptose) and plasma and brain samples were collected from anaesthetized animals at 1 and 2 h post-dosing. Animals were anaesthetized by intraperitoneal administration of sodium pentobarbital (60 mg/kg). Blood was collected from cardiac punction into heparinised tubes and kept on ice until centrifugation at 1,500 g for 15 min at 4° C. Plasma and brain samples were stored at less than −20° C. until analysis.
# After thawing, 200 μL of acetonitrile 0.1% formic acid was added to 100 μL of plasma. The samples were vortexed and centrifuged for 10 min at 10 000 g. Supernatant was filtered and injected into a mass spectrometer.
# After thawing and weighing, water was added to the brain to give a tissue concentration of […]. The samples were then homogenized using a Heidolph DIAX 900 mixer and transferred to plastic tubes. Following centrifugation at 10 000 g for 20 min, supernatant was taken and treated as described for plasma.
# [4] = literature; cited from earlier work
# [5] = brain, read-out: Cbr (ng/g) at 1 h
# [6] = brain, read-out: Cbr (ng/g) at 2 h
# [7] = plasma, read-out: Cpl (ng/mL) at 1 h
# [8] = plasma, read-out: Cpl (ng/mL) at 2 h
"Plasma (0.1 μM), activity in % of control ([1]; inhibitor 0.1 μM)","Plasma (1 μM), activity in % of control [1]","SKNSH (0.1 μM), activity in % of control [2]","SKNSH (1 μM), activity in % of control [2]",Compound,also measured
5.7 % of control,0 % of control,0.4 % of control,0 % of control,"O=C(O)Cc1[nH]c(=S)n2c1[C@@H]1C[C@]1(c1c(F)ccc(Br)c1F)C2 [Example 51, 2-((5aS,6aR)-5a-(3-bromo-2,6-difluorophenyl)-3-thioxo-2,3,5,5a,6,6a-hexahydrocyclopropa[3,4]pyrrolo[1,2-c]imidazol-1-yl)acetic Acid]",
10.3 % of control,1.6 % of control,9.2 % of control,0.2 % of control,"O=C(O)Cc1[nH]c(=S)n2c1[C@@H]1C[C@]1(c1cc(Cl)ccc1F)C2 [Example 52, 2-((5aS,6aR)-5a-(5-chloro-2-fluorophenyl)-3-thioxo-2,3,5,5a,6,6a-hexahydrocyclopropa[3,4]pyrrolo[1,2-c]imidazol-1-yl)acetic Acid]",
26.2 % of control,2.7 % of control,13.4 % of control,0 % of control,"O=C(O)Cc1[nH]c(=S)n2c1[C@@H]1C[C@]1(c1cc(F)cc(Cl)c1)C2 [Example 53, 2-((5aS,6aR)-5a-(3-chloro-5-fluorophenyl)-3-thioxo-2,3,5,5a,6,6a-hexahydrocyclopropa[3,4]pyrrolo[1,2-c]imidazol-1-yl)acetic Acid]",
32.2 % of control,3.4 % of control,33.8 % of control,4.2 % of control,"CCOC(=O)Cc1[nH]c(=S)n2c1[C@@H]1C[C@]1(c1cc(Cl)ccc1F)C2 [Example 54, Ethyl 2-((5aS,6aR)-5a-(5-chloro-2-fluorophenyl)-3-thioxo-2,3,5,5a,6,6a-hexahydrocyclopropa[3,4]pyrrolo[1,2-c]imidazol-1-yl)acetate]",
62.1 % of control,11.1 % of control,48.9 % of control,3.9 % of control,"CCOC(=O)Cc1[nH]c(=S)n2c1[C@@H]1C[C@]1(c1cc(F)cc(Cl)c1)C2 [Example 55, Ethyl 2-((5aS,6aR)-5a-(3-chloro-5-fluorophenyl)-3-thioxo-2,3,5,5a,6,6a-hexahydrocyclopropa[3,4]pyrrolo[1,2-c]imidazol-1-yl)acetate]",
18.1 % of control,0.1 % of control,11.6 % of control,0.2 % of control,"NC(=O)Cc1[nH]c(=S)n2c1[C@@H]1C[C@]1(c1c(F)ccc(Br)c1F)C2 [Example 57, 2-((5aS,6aR)-5a-(3-bromo-2,6-difluorophenyl)-3-thioxo-2,3,5,5a,6,6a-hexahydrocyclopropa[3,4]pyrrolo[1,2-c]imidazol-1-yl)acetamide]",
59.2 % of control,14.0 % of control,56.8 % of control,9.3 % of control,"NC(=O)Cc1[nH]c(=S)n2c1[C@@H]1C[C@]1(c1cc(F)cc(Cl)c1)C2 [Example 58, 2-((5aS,6aR)-5a-(3-chloro-5-fluorophenyl)-3-thioxo-2,3,5,5a,6,6a-hexahydrocyclopropa[3,4]pyrrolo[1,2-c]imidazol-1-yl)acetamide]",
52.3 % of control,6.4 % of control,,,"O=C(Cc1[nH]c(=S)n2c1[C@@H]1C[C@]1(c1cc(Cl)ccc1F)C2)N1CCOCC1 [Example 66, 2-((5aS,6aR)-5a-(5-chloro-2-fluorophenyl)-3-thioxo-2,3,5,5a,6,6a-hexahydrocyclopropa[3,4]pyrrolo[1,2-c]imidazol-1-yl)-1-morpholinoethan-1-one]","concentration at 1 h [3, 5]: 0 ng/g; concentration at 2 h [3, 6]: 0 ng/g; concentration at 1 h [3, 7]: 779 ng/mL; concentration at 2 h [3, 8]: 429 ng/mL; peripheral selectivity (exposure in plasma compared to brain) [3]: peripherally selective"
0.6 % of control,,,,"Cl.Fc1cc(F)c(F)c([C@H]2Cc3c(CCN4CCOCC4)[nH]c(=S)n3C2)c1F [Example 199, (R)-1-(2-morpholinoethyl)-6-(2,3,5,6-tetrafluorophenyl)-2,5,6,7-tetrahydro-3H-pyrrolo[1,2-c]imidazole-3-thione Hydrochloride]","Plasma (0.01 μM), activity in % of control ([1]; inhibitor 0.01 μM): 27.4 % of control; Plasma (0.01 μM), activity in % of control, re-test (asterisked) ([1]; inhibitor 0.01 μM, re-tested under the same experimental conditions, asterisked data believed to be correct): 119.3* % of control; Plasma (0.1 μM), activity in % of control, re-test (asterisked) ([1]; inhibitor 0.1 μM, re-tested under the same experimental conditions, asterisked data believed to be correct): 84.9* % of control; concentration at 1 h [3, 5]: 45 ng/g; concentration at 2 h [3, 6]: 0 ng/g; concentration at 1 h [3, 7]: 1640 ng/mL; concentration at 2 h [3, 8]: 777 ng/mL; peripheral selectivity (exposure in plasma compared to brain) [3]: peripherally selective"
6.4 % of control,,,,"Cn1c(CC(=O)N[C@@H]2CCOC2)c2n(c1=S)C[C@H](c1c(F)ccc(Br)c1F)C2 [Example 232, 2-((S)-6-(3-bromo-2,6-difluorophenyl)-2-methyl-3-thioxo-2,5,6,7-tetrahydro-3H-pyrrolo[1,2-c]imidazol-1-yl)-N—((R)-tetrahydrofuran-3-yl)acetamide]","Plasma (0.01 μM), activity in % of control ([1]; inhibitor 0.01 μM): 48.8 % of control; concentration at 1 h [3, 5]: 24 ng/g; concentration at 2 h [3, 6]: 46 ng/g; concentration at 1 h [3, 7]: 1710 ng/mL; concentration at 2 h [3, 8]: 1310 ng/mL; peripheral selectivity (exposure in plasma compared to brain) [3]: peripherally selective"
,,,,CCN(CC)C(=S)S [diethyldithiocarbamate],toxic side effects [4]: toxic side effects
,,,,CCN(CC)C(=S)SSC(=S)N(CC)CC [disulfiram],toxic side effects [4]: toxic side effects
,,,,CCCCc1ccc(C(=O)O)nc1 [fusaric acid],toxic side effects [4]: toxic side effects

Compound,"Plasma (0.1 μM), activity in % of control ([1]; inhibitor 0.1 μM)","Plasma (1 μM), activity in % of control [1]","SKNSH (0.1 μM), activity in % of control [2]","SKNSH (1 μM), activity in % of control [2]",also measured
NC(=O)Cc1[nH]c(=S)n2c1[C@@H]1C[C@]1(c1cc(Cl)ccc1F)C2 [Example 56],38.5 % of control,5.5 % of control,45.6 % of control,5.2 % of control,"concentration at 1 h [3, 5]: 20 ng/g; concentration at 2 h [3, 6]: 21 ng/g; concentration at 1 h [3, 7]: 1500 ng/mL; concentration at 2 h [3, 8]: 1130 ng/mL; peripheral selectivity (exposure in plasma compared to brain) [3]: peripherally selective"

# Source: US11434242B2, “Dopamine-b-hydroxylase inhibitors” (BIAL-PORTELA & Cª, S.A., priority 2017, dated 2022)
